Reference: patent publication US12139520B2 (priority 2020, dated 2024)
Numbered stars: 1 amine (or outer) side, 2 acyl side, 3 side chain; on linkers, the order of the positions; unused ones are H or OH. Bridge positions count the residues as written; N and C are the ends. Peptide text beside a SMILES is read from it. * marks the point of attachment. C20 diacid = O=C(O)CCCCCCCCCCCCCCCCCCC(=O)*; γGlu = O=C(O)[C@H](CCC(=O)[*:2])N[*:1]

Target: T1, hAMY3 receptor (Homo sapiens, UniProt O60896+P30988)
T1 sequence (P30988 25-474): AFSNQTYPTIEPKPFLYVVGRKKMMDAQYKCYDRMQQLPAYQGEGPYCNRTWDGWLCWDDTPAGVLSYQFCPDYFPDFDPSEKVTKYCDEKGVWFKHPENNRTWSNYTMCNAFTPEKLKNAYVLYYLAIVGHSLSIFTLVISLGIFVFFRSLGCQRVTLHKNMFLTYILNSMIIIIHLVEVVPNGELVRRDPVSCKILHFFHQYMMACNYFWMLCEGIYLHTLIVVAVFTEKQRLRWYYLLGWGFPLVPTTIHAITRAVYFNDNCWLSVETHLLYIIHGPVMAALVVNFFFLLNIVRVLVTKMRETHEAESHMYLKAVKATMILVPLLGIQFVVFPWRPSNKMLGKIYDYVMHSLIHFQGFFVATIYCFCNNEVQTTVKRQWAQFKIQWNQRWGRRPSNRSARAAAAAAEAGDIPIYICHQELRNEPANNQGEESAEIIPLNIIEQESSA
T1 sequence (O60896 24-148 partner): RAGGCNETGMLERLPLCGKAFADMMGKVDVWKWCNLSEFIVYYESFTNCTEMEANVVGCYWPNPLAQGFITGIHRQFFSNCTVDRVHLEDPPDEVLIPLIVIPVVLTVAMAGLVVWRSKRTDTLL
Assay: cAMP assay for in vitro receptor activation, hAMY3-R
Type: cell-based
Settings: cAMP assay, hAMY3 receptor; read-out: hAMY3R EC50
How it was run: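 Receptor activation was measured as cAMP accumulation in a monoclonal cell line stably overexpressing hAMY3. Stimulation with graded doses lasted 30 min at room temperature in the presence of 0.5 mM IBMX, with human amylin as positive control.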

| Structure (SMILES) | EC50 [nM] |
| --- | --- |
| CC[C@H](C)[C@H](NC(=O)[C@H](CC(N)=O)NC(=O)[C@@H](NC(=O)[C@H](CCCNC(=N)N)NC(=O)[C@@H]1CCCN1C(=O)[C@H](C)NC(=O)[C@@H](NC(=O)[C@H](CC(N)=O)NC(=O)[C@H](CC(=O)O)NC(=O)[C@H](CCCCN)NC(=O)[C@H](CC(=O)O)NC(=O)[C@H](CCCCN)NC(=O)[C@H](CC(=O)O)NC(=O)[C@@H](NC(=O)[C@H](Cc1ccccc1)NC(=O)[C@H](CCC(N)=O)NC(=O)[C@H](Cc1ccc(O)cc1)NC(=O)[C@@H](NC(=O)[C@H](CCC(N)=O)NC(=O)[C@H](Cc1c[nH]cn1)NC(=O)[C@H](C)NC(=O)[C@H](CC(C)C)NC(=O)[C@H](CCCNC(=N)N)NC(=O)[C@H](CCC(N)=O)NC(=O)[C@@H](NC(=O)[C@@H](NC(=O)[C@@H]1CSSC[C@H](NC(=O)CN)C(=O)N[C@@H](CCCNC(=N)N)C(=O)N[C@@H](Cc2ccccc2)C(=O)NCC(=O)N[C@@H]([C@@H](C)O)C(=O)N1)[C@@H](C)O)C(C)C)[C@@H](C)CC)[C@@H](C)O)C(C)C)[C@@H](C)O)C(=O)NCC(=O)N1CCC[C@H]1C(=O)N[C@@H](CC(N)=O)C(=O)NCC(=O)N[C@@H](Cc1ccc(O)cc1)C(N)=O [compound 381] (H-GCRFGTCTVQRLAHQIYQFTDKDKDNVAPRTNIGPNGY-NH2; disulfide 2-7; N-terminus assumed) | 0.032 |
| CC[C@H](C)[C@H](NC(=O)[C@H](CC(N)=O)NC(=O)[C@H](CO)NC(=O)[C@H](CCCNC(=N)N)NC(=O)[C@@H]1CCCN1C(=O)[C@H](C)NC(=O)[C@@H](NC(=O)[C@H](CC(N)=O)NC(=O)[C@H](CC(=O)O)NC(=O)[C@H](CCCCN)NC(=O)[C@H](CC(=O)O)NC(=O)[C@H](CCCCN)NC(=O)[C@H](CC(=O)O)NC(=O)[C@@H](NC(=O)[C@H](Cc1ccccc1)NC(=O)[C@H](CCC(N)=O)NC(=O)[C@H](Cc1ccc(O)cc1)NC(=O)[C@@H](NC(=O)[C@H](CCC(N)=O)NC(=O)[C@H](Cc1c[nH]cn1)NC(=O)[C@H](C)NC(=O)[C@H](CC(C)C)NC(=O)[C@H](CCCNC(=N)N)NC(=O)[C@H](CCC(N)=O)NC(=O)[C@@H](NC(=O)[C@@H](NC(=O)[C@@H]1CSSC[C@H](NC(=O)CN)C(=O)N[C@@H](CCCNC(=N)N)C(=O)N[C@@H](Cc2ccccc2)C(=O)NCC(=O)N[C@@H]([C@@H](C)O)C(=O)N1)[C@@H](C)O)C(C)C)[C@@H](C)CC)[C@@H](C)O)C(C)C)C(=O)NCC(=O)N1CCC[C@H]1C(=O)N[C@@H](CCC(N)=O)C(=O)NCC(=O)N[C@@H](Cc1ccc(O)cc1)C(N)=O [compound 382] (H-GCRFGTCTVQRLAHQIYQFTDKDKDNVAPRSNIGPQGY-NH2; disulfide 2-7) | 0.034 |
| CC[C@H](C)[C@H](NC(=O)[C@H](CCC(N)=O)NC(=O)[C@H](Cc1c[nH]cn1)NC(=O)[C@H](C)NC(=O)[C@H](CC(C)C)NC(=O)[C@H](CCCNC(=N)N)NC(=O)[C@H](CCC(N)=O)NC(=O)[C@@H](NC(=O)[C@@H](NC(=O)[C@@H]1CSSC[C@H](NC(=O)CN)C(=O)N[C@@H](CCCNC(=N)N)C(=O)N[C@@H](Cc2ccccc2)C(=O)NCC(=O)N[C@@H]([C@@H](C)O)C(=O)N1)[C@@H](C)O)C(C)C)C(=O)N[C@@H](Cc1ccc(O)cc1)C(=O)N[C@@H](CCC(N)=O)C(=O)N[C@@H](Cc1ccccc1)C(=O)N[C@H](C(=O)N[C@@H](CC(=O)O)C(=O)N[C@@H](CCCCN)C(=O)N[C@@H](CC(=O)O)C(=O)N[C@@H](CCCCN)C(=O)N[C@@H](CC(=O)O)C(=O)N[C@@H](CC(N)=O)C(=O)N[C@H](C(=O)N[C@@H](C)C(=O)N1CCC[C@H]1C(=O)N[C@@H](CCCNC(=N)N)C(=O)N[C@@H](CO)C(=O)N[C@@H](CCCCN)C(=O)N[C@H](C(=O)N[C@@H](CO)C(=O)N1CCC[C@H]1C(=O)N[C@@H](CC(N)=O)C(=O)NCC(=O)N[C@@H](Cc1ccc(O)cc1)C(N)=O)C(C)C)C(C)C)[C@@H](C)O [compound 384] (H-GCRFGTCTVQRLAHQIYQFTDKDKDNVAPRSKVSPNGY-NH2; disulfide 2-7; N-terminus assumed) | 0.036 |
| CC(C)C[C@H](NC(=O)[C@H](CCCNC(=N)N)NC(=O)[C@H](CCC(N)=O)NC(=O)[C@@H](NC(=O)[C@@H](NC(=O)[C@@H]1CSSC[C@H](NC(=O)CNC(=O)CC[C@H](NC(=O)CCCCCCCCCCCCCCCCCCC(=O)O)C(=O)O)C(=O)N[C@@H](CCCNC(=N)N)C(=O)N[C@@H](Cc2ccccc2)C(=O)NCC(=O)N[C@@H]([C@@H](C)O)C(=O)N1)[C@@H](C)O)C(C)C)C(=O)N[C@@H](C)C(=O)N[C@@H](CC(N)=O)C(=O)N[C@@H](Cc1ccccc1)C(=O)N[C@@H](CC(C)C)C(=O)N[C@@H](Cc1ccc(O)cc1)C(=O)N[C@@H](CCC(N)=O)C(=O)N[C@@H](Cc1ccccc1)C(=O)N[C@H](C(=O)N[C@@H](CC(=O)O)C(=O)N[C@@H](CCCCN)C(=O)N[C@@H](CC(=O)O)C(=O)N[C@@H](CCCCN)C(=O)N[C@@H](CC(=O)O)C(=O)N[C@@H](CC(N)=O)C(=O)N[C@H](C(=O)N[C@@H](C)C(=O)N1CCC[C@H]1C(=O)N[C@@H](CCCNC(=N)N)C(=O)N[C@H](C(=O)N[C@@H](CC(N)=O)C(=O)N[C@H](C(=O)NCC(=O)N1CCC[C@H]1C(=O)N[C@@H](CCC(N)=O)C(=O)NCC(=O)N[C@@H](Cc1ccc(O)cc1)C(N)=O)C(C)C)[C@@H](C)O)C(C)C)[C@@H](C)O [compound 386] ({C20 diacid-γGlu}-GCRFGTCTVQRLANFLYQFTDKDKDNVAPRTNVGPQGY-NH2; disulfide 2-7) | 0.039 |
| CC[C@H](C)[C@H](NC(=O)[C@H](CCCCN)NC(=O)[C@H](CO)NC(=O)[C@H](CCCNC(=N)N)NC(=O)[C@@H]1CCCN1C(=O)[C@H](C)NC(=O)[C@@H](NC(=O)[C@H](CC(N)=O)NC(=O)[C@H](CC(=O)O)NC(=O)[C@H](CCCCN)NC(=O)[C@H](CC(=O)O)NC(=O)[C@H](CCCCN)NC(=O)[C@H](CC(=O)O)NC(=O)[C@@H](NC(=O)[C@H](Cc1ccccc1)NC(=O)[C@H](CCC(N)=O)NC(=O)[C@@H](NC(=O)[C@H](CC(C)C)NC(=O)[C@H](Cc1ccccc1)NC(=O)[C@H](CC(N)=O)NC(=O)[C@H](C)NC(=O)[C@H](CC(C)C)NC(=O)[C@H](CCCNC(=N)N)NC(=O)[C@H](CCC(N)=O)NC(=O)[C@@H](NC(=O)[C@H](C)NC(=O)[C@@H]1CSSC[C@H](NC(=O)[C@H](CCCCN)NC(=O)CC[C@H](NC(=O)CCCCCCCCCCCCCCCCCCC(=O)O)C(=O)O)C(=O)N[C@@H](CC(N)=O)C(=O)N[C@@H](Cc2ccccc2)C(=O)N[C@@H](C)C(=O)N[C@@H]([C@@H](C)O)C(=O)N1)[C@@H](C)O)C(C)C)[C@@H](C)O)C(C)C)C(=O)NCC(=O)N1CCC[C@H]1C(=O)N[C@@H](CCC(N)=O)C(=O)NCC(=O)N[C@@H](Cc1ccc(O)cc1)C(N)=O [compound 389] ({C20 diacid-γGlu}-KCNFATCATQRLANFLVQFTDKDKDNVAPRSKIGPQGY-NH2; disulfide 2-7) | 0.045 |
| CC[C@H](C)[C@H](NC(=O)[C@H](CCCCN)NC(=O)[C@@H](NC(=O)[C@H](CCCNC(=N)N)NC(=O)[C@@H]1CCCN1C(=O)[C@H](C)NC(=O)[C@@H](NC(=O)[C@H](CC(N)=O)NC(=O)[C@H](CC(=O)O)NC(=O)[C@H](CCCCN)NC(=O)[C@H](CC(=O)O)NC(=O)[C@H](CCCCN)NC(=O)[C@H](CC(=O)O)NC(=O)[C@@H](NC(=O)[C@H](Cc1ccccc1)NC(=O)[C@H](CCC(N)=O)NC(=O)[C@H](Cc1ccc(O)cc1)NC(=O)[C@H](CC(C)C)NC(=O)[C@H](Cc1ccccc1)NC(=O)[C@H](Cc1c[nH]cn1)NC(=O)[C@H](C)NC(=O)[C@H](CC(C)C)NC(=O)[C@H](CCCNC(=N)N)NC(=O)[C@H](CCC(N)=O)NC(=O)[C@@H](NC(=O)[C@@H](NC(=O)[C@@H]1CSSC[C@H](NC(=O)CNC(=O)CC[C@H](NC(=O)CCCCCCCCCCCCCCCCCCC(=O)O)C(=O)O)C(=O)N[C@@H](CCCNC(=N)N)C(=O)N[C@@H](Cc2ccccc2)C(=O)NCC(=O)N[C@@H]([C@@H](C)O)C(=O)N1)[C@@H](C)O)C(C)C)[C@@H](C)O)C(C)C)[C@@H](C)O)C(=O)NCC(=O)N1CCC[C@H]1C(=O)N[C@@H](CCC(N)=O)C(=O)NCC(=O)N[C@@H](Cc1ccc(O)cc1)C(N)=O [compound 390] ({C20 diacid-γGlu}-GCRFGTCTVQRLAHFLYQFTDKDKDNVAPRTKIGPQGY-NH2; disulfide 2-7) | 0.048 |
